{"source": "paper PMC7730851", "about": "“Expression of Somatostatin Receptor Subtypes (SSTR-1–SSTR-5) in Pediatric Hematological and Oncological Disorders” (Molecules, 2020)", "key": {"[1]": {"molecular_target": "somatostatin receptors (SSTR)", "assay": "Ligand competition assay: binding of [125I]RC-160 to membrane homogenates of pediatric solid tumor samples (Scatchard / LIGAND-PC)", "parameters": "species or system human", "experimental": "(§1) Receptor binding affinities and concentrations of SSTRs in tumor membranes were also studied. […] Biochemical specifications and parameters crucial to characterize specific binding sites were also defined. […] Various peptides structurally related or unrelated to SST were used in these studies.\n(§2) The radioiodinated derivatives of the RC-160 SST analogue were prepared by the chloramine-T method and purified by reverse phase high-performance liquid chromatography (RP-HPLC) as described previously. Somatostatin receptor-binding assays were performed as described previously with some minor modifications, using in vitro ligand competition assays based on the binding of [^125I] RC-160 as a radioligand to membrane fractions of the pediatric samples. This radioiodinated ligand has been well characterized and reported previously and has high affinity for SSTR-2 and SSTR-5 [4]. Tumor membrane homogenates were incubated as competitors with 50,000–70,000 cpm radioiodinated RC-160 and 10^−12–10^−6 M nonradioactive peptides. After incubation for 2 h, the binding reactions were stopped, and the bound ligand was separated and counted in a gamma counter. The LIGAND-PC computer curve-fitting software of Munson and Rodbard was used to determine the type of receptor binding, the dissociation constant (Kd), and the maximal binding capacity of SSTRs (Bmax). […] The final binding affinities were expressed as IC50 values. Protein concentration was determined by the method of Bradford using a Bio-Rad protein assay kit (Bio-Rad Laboratories, Inc.)."}, "SSTR-2": {"test_system": "SSTR-2", "settings": "cited from earlier work"}, "SSTR-5": {"test_system": "SSTR-5", "settings": "cited from earlier work"}, "[2]": {"test_system": "somatostatin receptors (SSTR)", "assay": "Displacement of [125I]RC-160 binding from membranes of human pediatric tumors by unlabeled peptides", "settings": "for inhibition/displacement of the binding of radioiodinated RC-160: pediatric tumor membranes, competitor 10^-12-10^-6 M, concentrations as high as 1 µM; for displacement of [125I]RC-160 binding: membrane fractions of human rhabdomyosarcoma specimen, Figure 3", "experimental": "as §1\nDisplacement of [^125I] RC-160 as a radioligand by the unlabeled SST analogs as competitor was determined.\nas §2"}, "SSTR-1": {"test_system": "SSTR-1", "settings": "cited from earlier work"}, "SSTR-3": {"test_system": "SSTR-3", "settings": "cited from earlier work"}}, "note": "Entries after “also recorded” stand apart in the source; their conditions may differ. Like-named read-outs stand apart in the source and are kept apart here. Positions of bridges follow the written chain, without caps; N, C: chain ends. Non-standard residues stand in square brackets, D forms with d. Residues, ends and D or L forms follow the SMILES beside them.", "data": [{"compound": "CC(C)[C@@H]1NC(=O)[C@H](CCCCN)NC(=O)[C@@H](Cc2c[nH]c3ccccc23)NC(=O)[C@H](Cc2ccc(O)cc2)NC(=O)[C@@H](NC(=O)[C@H](N)Cc2ccccc2)CSSC[C@@H](C(=O)N[C@@H](Cc2c[nH]c3ccccc23)C(N)=O)NC1=O", "note": "[[125I]RC-160] (H-[dF]CY[dW]KVCW-NH2; disulfide 2-7)", "values": [{"measurement": "Kd", "setting": "[1]; mean of seven receptor-positive pediatric tumor samples, read-out: mean dissociation constant (Kd)", "result": 6, "unit": "nM"}, {"measurement": "Kd", "setting": "[1]; patient 1, teratoma membranes, duplicates, read-out: SSTR Kd", "result": 5.76, "unit": "nM"}, {"measurement": "Kd", "setting": "[1]; patient 4, Hodgkin lymphoma membranes, duplicates, read-out: SSTR Kd", "result": 8.01, "unit": "nM"}, {"measurement": "Kd", "setting": "[1]; patient 5, rhabdomyosarcoma membranes, duplicates, read-out: SSTR Kd", "result": 8.12, "unit": "nM"}, {"measurement": "Kd", "setting": "[1]; patient 6, rhabdomyosarcoma membranes, duplicates, read-out: SSTR Kd", "result": 4.31, "unit": "nM"}, {"measurement": "Kd", "setting": "[1]; patient 7, hamartoma membranes, duplicates, read-out: SSTR Kd", "result": 4.02, "unit": "nM"}, {"measurement": "Kd", "setting": "[1]; range over seven receptor-positive pediatric tumor samples, read-out: dissociation constant (Kd), range", "result": "4.02 to 8.12", "unit": "nM"}, {"measurement": "affinity for SSTR-2", "setting": "SSTR-2", "result": "high affinity"}, {"measurement": "affinity for SSTR-5", "setting": "SSTR-5", "result": "high affinity"}]}, {"compound": "SST-14: somatostatin-14, native peptide", "values": [{"measurement": "inhibition/displacement of the binding of radioiodinated RC-160", "setting": "[2]", "result": "displaced completely"}]}, {"compound": "VIP: unrelated peptide used as specificity control (Figure 3)", "values": [{"measurement": "displacement of [125I]RC-160 binding", "setting": "[2]", "result": "did not displace"}]}, {"compound": "[Tyr4]bombesin", "values": [{"measurement": "inhibition/displacement of the binding of radioiodinated RC-160", "setting": "[2]", "result": "none"}]}, {"compound": "bombesin", "values": [{"measurement": "displacement of [125I]RC-160 binding", "setting": "[2]", "result": "did not displace"}]}, {"compound": "growth hormone-releasing hormone (GHRH): unrelated peptide used as specificity control", "values": [{"measurement": "displacement of [125I]RC-160 binding", "setting": "[2]", "result": "did not displace"}, {"measurement": "inhibition/displacement of the binding of radioiodinated RC-160", "setting": "[2]", "result": "none"}]}, {"compound": "insulin-like growth factor I: unrelated peptide used as specificity control", "values": [{"measurement": "inhibition/displacement of the binding of radioiodinated RC-160", "setting": "[2]", "result": "none"}]}, {"compound": "luteinizing hormone-releasing hormone (LHRH): unrelated peptide used as specificity control", "values": [{"measurement": "displacement of [125I]RC-160 binding", "setting": "[2]", "result": "did not displace"}, {"measurement": "inhibition/displacement of the binding of radioiodinated RC-160", "setting": "[2]", "result": "none"}]}, {"compound": "octreotide", "values": [{"measurement": "affinity to SSTR-1", "setting": "SSTR-1", "result": "lower binding affinity"}, {"measurement": "affinity to SSTR-2", "setting": "SSTR-2", "result": "high affinity; also recorded: highest affinity"}, {"measurement": "affinity to SSTR-3", "setting": "SSTR-3", "result": "approximately similar affinity"}, {"measurement": "affinity to SSTR-5", "setting": "SSTR-5", "result": "high affinity; also recorded: approximately similar affinity"}]}, {"compound": "pasireotide", "values": [{"measurement": "affinity to SSTR-1", "setting": "SSTR-1", "result": "possesses an affinity"}, {"measurement": "affinity to SSTR-3", "setting": "SSTR-3", "result": "possesses an affinity"}, {"measurement": "affinity to SSTR-5", "setting": "SSTR-5", "result": "possesses an affinity"}]}]}
